Data on two molecules can be found in PMC2947196 (2010).

The target in series [1] is T1, MCT2 (monocarboxylate transporter 2) (Rattus norvegicus, UniProt Q63344).
T1 sequence (Q63344 1-489): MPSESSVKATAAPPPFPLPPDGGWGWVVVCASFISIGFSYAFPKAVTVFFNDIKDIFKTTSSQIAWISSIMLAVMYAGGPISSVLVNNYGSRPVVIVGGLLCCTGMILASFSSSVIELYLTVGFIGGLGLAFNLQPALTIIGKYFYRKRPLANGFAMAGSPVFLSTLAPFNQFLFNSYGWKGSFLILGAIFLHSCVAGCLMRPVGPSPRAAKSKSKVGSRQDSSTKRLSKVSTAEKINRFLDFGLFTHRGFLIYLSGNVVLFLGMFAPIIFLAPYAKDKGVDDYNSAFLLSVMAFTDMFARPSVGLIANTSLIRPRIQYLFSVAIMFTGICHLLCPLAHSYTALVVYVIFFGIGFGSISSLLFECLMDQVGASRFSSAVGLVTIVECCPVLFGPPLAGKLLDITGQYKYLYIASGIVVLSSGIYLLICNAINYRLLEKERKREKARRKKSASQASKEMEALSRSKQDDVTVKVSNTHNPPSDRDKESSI
Briefly: inhibition of L-[…]lactate uptake in Xenopus oocytes. In kind it is cell-based. As to conditions: read-out: % inhibition at 10 nM.

Series [2] concerns the target MCT1 (monocarboxylate transporter 1) (Rattus norvegicus, UniProt P53987). The series is described as above. In kind it is cell-based. The conditions noted are these: read-out: Inhibitor-insensitive component (%).
A further series deals with CC(O)C(=O)O. Briefly: cells, lysate or membranes.

Sequence of MCT1 (monocarboxylate transporter 1) (P53987 whole entry): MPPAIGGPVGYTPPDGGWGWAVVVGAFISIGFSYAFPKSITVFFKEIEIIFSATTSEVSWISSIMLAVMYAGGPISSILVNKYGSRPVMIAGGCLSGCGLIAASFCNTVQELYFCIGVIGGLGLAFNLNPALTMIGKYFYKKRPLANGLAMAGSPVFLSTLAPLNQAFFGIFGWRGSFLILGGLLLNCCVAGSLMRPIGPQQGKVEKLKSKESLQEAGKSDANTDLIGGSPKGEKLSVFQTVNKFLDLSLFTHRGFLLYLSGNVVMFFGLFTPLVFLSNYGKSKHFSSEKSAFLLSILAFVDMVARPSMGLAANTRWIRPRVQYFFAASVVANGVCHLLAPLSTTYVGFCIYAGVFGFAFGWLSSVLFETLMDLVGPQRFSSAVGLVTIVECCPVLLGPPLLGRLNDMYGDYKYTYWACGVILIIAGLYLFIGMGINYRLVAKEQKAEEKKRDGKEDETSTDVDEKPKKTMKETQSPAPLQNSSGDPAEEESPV

As a reminder, the inhibition is the share of the control response that was lost under treatment. For `Cc1n[nH]c(C)c1Cc1sc2c(c1C(=O)N1C[C@H](O)CO1)c(=O)n(C)c(=O)n2CC(C)C` [AR-C155858], the inhibition at 0.01 µM in series [1] is about 70%. The activity at 0.1 µM in series [2] worked out at 1.9 ± 0.6%. Usually Km stands for the concentration of substrate that gives half-maximal velocity. In the case of “MCT1 (monocarboxylate transporter 1) (Rattus norvegicus)”, the Km in the series on CC(O)C(=O)O worked out at 4.4 ± 1.5 mM.
